Measured values taken from patent publication US8017602B2, “N-(2-(2-(5-hydroxy-3-oxo-3,4-dihydro-2H-benzo[b][1,4]oxazin-8-yl)ethylamino)ethyl)-3-(phenethoxy)propanamide derivatives, processes for their preparation, pharmaceutical compositions containing them and their use in therapy” (AstraZeneca AB, priority 2008, dated 2011).
Where a name gives a salt, the structure may show the parent alone.

Target: T1, Adrenergic β2 (Homo sapiens, UniProt P07550)
T1 construct: Adherent H292 cells were removed from tissue culture flasks; endogenous in cells; host or cells: H292 cells
T1 sequence (P07550 whole entry): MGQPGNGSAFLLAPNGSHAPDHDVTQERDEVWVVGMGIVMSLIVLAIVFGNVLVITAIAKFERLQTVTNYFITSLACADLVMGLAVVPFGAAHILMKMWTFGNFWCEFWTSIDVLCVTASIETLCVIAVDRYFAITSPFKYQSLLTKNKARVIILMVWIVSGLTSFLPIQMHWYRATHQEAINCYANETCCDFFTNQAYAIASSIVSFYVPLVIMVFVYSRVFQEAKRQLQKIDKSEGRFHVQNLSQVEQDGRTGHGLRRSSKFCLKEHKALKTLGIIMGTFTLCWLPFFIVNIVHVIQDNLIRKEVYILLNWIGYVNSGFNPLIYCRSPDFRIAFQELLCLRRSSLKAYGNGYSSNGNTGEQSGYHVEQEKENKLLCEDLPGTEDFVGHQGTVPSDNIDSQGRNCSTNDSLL
Assay: Adrenergic β2 mediated cAMP production in H292 cells (AlphaScreen cAMP detection)
Format: cell-based
Details: for β2 Int Act: Intrinsic Activity, fraction relative to the maximum activity determined for formoterol; for EC50: cAMP production, 60 min at room temperature, 300 μM rolipram, read-out: β2 pEC50 (converted)
Protocol: H292 cells were grown in 225 cm2 flasks incubator at 37° C., 5% CO2 in RPMI medium containing, 10% (v/v) FBS (foetal bovine serum) and 2 mM L-glutamine.
Adherent H292 cells were removed from tissue culture flasks by treatment with Accutase™ cell detachment solution for 15 min. Flasks were incubated for 15 min in a humidified incubator at 37° C., 5% CO2. Detached cells were re-suspended in RPMI media (containing 10% (v/v) FBS and 2 mM L-glutamine) at […]. 10000 cells in 100 μl were added to each well of a tissue-culture-treated 96-well plate and the cells incubated overnight in a humidified incubator at 37° C., 5% CO2. The culture media was removed and cells were washed twice with 100 μl assay buffer and replaced with 50 μL assay buffer (HBSS solution containing 10 mM HEPES pH7.4 and 5 mM glucose). Cells were rested at room temperature for 20 min after which time 25 μl of rolipram (1.2 mM made up in assay buffer containing 2.4% (v/v) dimethylsulphoxide) was added. Cells were incubated with rolipram for 10 min after which time test compounds were added and the cells were incubated for 60 min at room temperature. The final rolipram concentration in the assay was 300 μM and final vehicle concentration was 1.6% (v/v) dimethylsulphoxide. The reaction was stopped by removing supernatants, washing once with 100 μL assay buffer and replacing with 50 μL lysis buffer. The cell monolayer was frozen at −80° C. for 30 min (or overnight).
AlphaScreen™ cAMP Detection
The concentration of cAMP (cyclic adenosine monophosphate) in the cell lysate was determined using AlphaScreen™ methodology. The frozen cell plate was thawed for 20 min on a plate shaker then 10 μl of the cell lysate was transferred to a 96-well white plate. 40 μL of mixed AlphaScreen™ detection beads pre-incubated with biotinylated cAMP, was added to each well and the plate incubated at room temperature for 10 h in the dark. The AlphaScreen™ signal was measured using an EnVision spectrophotometer (Perkin-Elmer Inc.) with the recommended manufacturer's settings. cAMP concentrations were determined by reference to a calibration curve determined in the same experiment using standard cAMP concentrations. Concentration response curves for agonists were constructed and data was fitted to a four parameter logistic equation to determine both the pEC50 and Intrinsic Activity. Intrinsic Activity was expressed as a fraction relative to the maximum activity determined for formoterol in each experiment.

Cn1nccc1-c1cccc(CCOCCC(=O)N(CCNCCc2ccc(O)c3c2OCC(=O)N3)C2CCCCC2)c1 [Example 03, N-Cyclohexyl-N-(2-(2-(5-hydroxy-3-oxo-3,4-dihydro-2H-benzo[b][1,4]oxazin-8-yl)ethylamino)ethyl)-3-(3-(1-methyl-1H-pyrazol-5-yl)phenethoxy)propanamide Trifluoroacetic Acid Salt]
β2 Int Act: 0.81 | EC50: 10 nM

CCn1cc(-c2cccc(CCOCCC(=O)N(CCNCCc3ccc(O)c4c3OCC(=O)N4)C3CCCCC3)c2)nn1 [Example 04, N-Cyclohexyl-3-(3-(1-ethyl-1H-1,2,3-triazol-4-yl)phenethoxy)-N-(2-(2-(5-hydroxy-3-oxo-3,4-dihydro-2H-benzo[b][1,4]oxazin-8-yl)ethylamino)ethyl)propanamide Trifluoroacetic Acid Salt]
β2 Int Act: 0.96 | EC50: 12.6 nM

Cn1cc(-c2cccc(CCOCCC(=O)N(CCNCCc3ccc(O)c4c3OCC(=O)N4)C3CCCCC3)c2)nn1 [Example 05, N-Cyclohexyl-N-(2-(2-(5-hydroxy-3-oxo-3,4-dihydro-2H-benzo[b][1,4]oxazin-8-yl)ethylamino)ethyl)-3-(3-(1-methyl-1H-1,2,3-triazol-4-yl)phenethoxy)propanamide Trifluoroacetic Acid Salt]
β2 Int Act: 0.87 | EC50: 7.94 nM

Cn1nnc(-c2cccc(CCOCCC(=O)N(CCNCCc3ccc(O)c4c3OCC(=O)N4)C3CCCCC3)c2)n1 [Example 07, N-Cyclohexyl-N-(2-(2-(5-hydroxy-3-oxo-3,4-dihydro-2H-benzo[b][1,4]oxazin-8-yl)ethylamino)ethyl)-3-(3-(2-methyl-2H-tetrazol-5-yl)phenethoxy)propanamide Trifluoroacetic Acid Salt]
β2 Int Act: 0.92 | EC50: 15.8 nM

Cn1nnnc1-c1cccc(CCOCCC(=O)N(CCNCCc2ccc(O)c3c2OCC(=O)N3)C2CCCCC2)c1 [Example 08, N-Cyclohexyl-N-(2-(2-(5-hydroxy-3-oxo-3,4-dihydro-2H-benzo[b][1,4]oxazin-8-yl)ethylamino)ethyl)-3-(3-(1-methyl-1H-tetrazol-5-yl)phenethoxy)propanamide Trifluoroacetic Acid Salt]
β2 Int Act: 0.92 | EC50: 15.8 nM

CC(C)[C@@H](C)N(CCNCCc1ccc(O)c2c1OCC(=O)N2)C(=O)CCOCCc1cccc(-c2cnn(C)c2)c1 [Example 09, (R)—N-(2-(2-(5-Hydroxy-3-oxo-3,4-dihydro-2H-benzo[b][1,4]oxazin-8-yl)ethylamino)ethyl)-3-(3-(1-methyl-1H-pyrazol-4-yl)phenethoxy)-N-(3-methylbutan-2-yl)propanamide Trifluoroacetic Acid Salt]
β2 Int Act: 0.92 | EC50: 7.94 nM

O=C1COc2c(CCNCCN(C(=O)CCOCCc3cccc(-c4cnco4)c3)C3CCCCC3)ccc(O)c2N1 [Example 10, N-Cyclohexyl-N-(2-(2-(5-hydroxy-3-oxo-3,4-dihydro-2H-benzo[b][1,4]oxazin-8-yl)ethylamino)ethyl)-3-(3-(oxazol-5-yl)phenethoxy)propanamide Trifluoroacetic Acid Salt]
β2 Int Act: 0.88 | EC50: 10 nM

CC(C)n1cc(-c2cccc(CCOCCC(=O)N(CCNCCc3ccc(O)c4c3OCC(=O)N4)C3CCCCC3)c2)nn1 [Example 12, N-Cyclohexyl-N-(2-(2-(5-hydroxy-3-oxo-3,4-dihydro-2H-benzo[b][1,4]oxazin-8-yl)ethylamino)ethyl)-3-(3-(1-isopropyl-1H-1,2,3-triazol-4-yl)phenethoxy)propanamide Trifluoroacetic Acid Salt]
β2 Int Act: 0.91 | EC50: 20 nM

Cn1cc(-c2cc(CCOCCC(=O)N(CCNCCc3ccc(O)c4c3OCC(=O)N4)C3CCCCC3)ccc2F)cn1 [Example 13, N-Cyclohexyl-3-(4-fluoro-3-(1-methyl-1H-pyrazol-4-yl)phenethoxy)-N-(2-(2-(5-hydroxy-3-oxo-3,4-dihydro-2H-benzo[b][1,4]oxazin-8-yl)ethylamino)ethyl)propanamide Trifluoroacetic Acid Salt]
β2 Int Act: 0.85 | EC50: 10 nM

O=C1COc2c(CCNCCN(C(=O)CCOCCc3cccc(-c4c[nH]nn4)c3)C3CCCCC3)ccc(O)c2N1 [Example 14, 3-(3-(1H-1,2,3-Triazol-4-yl)phenethoxy)-N-cyclohexyl-N-(2-(2-(5-hydroxy-3-oxo-3,4-dihydro-2H-benzo[b][1,4]oxazin-8-yl)ethylamino)ethyl)propanamide Trifluoroacetic Acid Salt]
β2 Int Act: 0.95 | EC50: 7.94 nM

O=C1COc2c(CCNCCN(C(=O)CCOCCc3cccc(-c4nn[nH]n4)c3)C3CCCCC3)ccc(O)c2N1 [Example 15, 3-(3-(2H-Tetrazol-5-yl)phenethoxy)-N-cyclohexyl-N-(2-(2-(5-hydroxy-3-oxo-3,4-dihydro-2H-benzo[b][1,4]oxazin-8-yl)ethylamino)ethyl)propanamide Trifluoroacetic Acid Salt]
β2 Int Act: 0.83 | EC50: 12.6 nM

Cn1cc(-c2cccc(CCOCCC(=O)N(CCNCCc3ccc(O)c4c3OCC(=O)N4)C3CCCCC3)c2F)cn1 [Example 16, N-Cyclohexyl-3-(2-fluoro-3-(1-methyl-1H-pyrazol-4-yl)phenethoxy)-N-(2-(2-(5-hydroxy-3-oxo-3,4-dihydro-2H-benzo[b][1,4]oxazin-8-yl)ethylamino)ethyl)propanamide Trifluoroacetic Acid Salt]
β2 Int Act: 1.00 | EC50: 12.6 nM

Cn1cc(-c2cc(F)cc(CCOCCC(=O)N(CCNCCc3ccc(O)c4c3OCC(=O)N4)C3CCCCC3)c2)cn1 [Example 17, N-Cyclohexyl-3-(3-fluoro-5-(1-methyl-1H-pyrazol-4-yl)phenethoxy)-N-(2-(2-(5-hydroxy-3-oxo-3,4-dihydro-2H-benzo[b][1,4]oxazin-8-yl)ethylamino)ethyl)propanamide Trifluoroacetic Acid Salt]
β2 Int Act: 0.94 | EC50: 7.94 nM

O=C1COc2c(CCNCCN(C(=O)CCOCCc3cccc(-c4cnn(CC5CC5)c4)c3)C3CCCC3)ccc(O)c2N1 [Example 19, N-Cyclopentyl-3-(3-(1-(cyclopropylmethyl)-1H-pyrazol-4-yl)phenethoxy)-N-(2-(2-(5-hydroxy-3-oxo-3,4-dihydro-2H -benzo[b][1,4]oxazin-8-yl)ethylamino)ethyl)propanamide Trifluoroacetic Acid Salt]
β2 Int Act: 0.95 | EC50: 6.31 nM

CCC[C@@H](C)N(CCNCCc1ccc(O)c2c1OCC(=O)N2)C(=O)CCOCCc1cccc(-c2cnn(C(C)C)c2)c1 [Example 21, (R)—N-(2-(2-(5-Hydroxy-3-oxo-3,4-dihydro-2H-benzo[b][1,4]oxazin-8-yl)ethylamino)ethyl)-3-(3-(1-isopropyl-1H-pyrazol-4-yl)phenethoxy)-N-(pentan-2-yl)propanamide Trifluoroacetic Acid Salt]
β2 Int Act: 1.00 | EC50: 12.6 nM

CC(C)n1cc(-c2cccc(CCOCCC(=O)N(CCNCCc3ccc(O)c4c3OCC(=O)N4)C3CCCC3)c2)cn1 [Example 22, N-Cyclopentyl-N-(2-(2-(5-hydroxy-3-oxo-3,4-dihydro-2H-benzo[b][1,4]oxazin-8-yl)ethylamino)ethyl)-3-(3-(1-isopropyl-1H-pyrazol-4-yl)phenethoxy)propanamide Trifluoroacetic Acid Salt]
β2 Int Act: 0.90 | EC50: 7.94 nM

CCn1cc(-c2cccc(CCOCCC(=O)N(CCNCCc3ccc(O)c4c3OCC(=O)N4)C3CCCC3)c2)cn1 [Example 24, N-Cyclopentyl-3-(3-(1-ethyl-1H-pyrazol-4-yl)phenethoxy)-N-(2-(2-(5-hydroxy-3-oxo-3,4-dihydro-2H-benzo[b][1,4]oxazin-8-yl)ethylamino)ethyl)propanamide Trifluoroacetic Acid Salt]
β2 Int Act: 0.95 | EC50: 7.94 nM

CCn1cc(-c2cccc(CCOCCC(=O)N(CCNCCc3ccc(O)c4c3OCC(=O)N4)[C@H](C)C(C)(C)C)c2)cn1 [Example 25, (R)—N-(3,3-Dimethylbutan-2-yl)-3-(3-(1-ethyl-1H-pyrazol-4-yl)phenethoxy)-N-(2-(2-(5-hydroxy-3-oxo-3,4-dihydro-2H-benzo[b][1,4]oxazin-8-yl)ethylamino)ethyl)propanamide Trifluoroacetic Acid Salt]
β2 Int Act: 0.90 | EC50: 12.6 nM
